Results on 12 molecules are retold here after ChEMBL document CHEMBL1129124, “Thromboxane modulating agents. 2. Thromboxane receptor antagonists derived from the thromboxane synthase inhibitor dazmegrel” (Bioorg Med Chem Lett, 1996).

Broadly, the IC50 is the concentration at which inhibition is half-maximal. A high value points to weaker potency.

The target of one assay is T1, Thromboxane A2 receptor (Rattus norvegicus, UniProt P34978).
T1 sequence (P34978 whole entry): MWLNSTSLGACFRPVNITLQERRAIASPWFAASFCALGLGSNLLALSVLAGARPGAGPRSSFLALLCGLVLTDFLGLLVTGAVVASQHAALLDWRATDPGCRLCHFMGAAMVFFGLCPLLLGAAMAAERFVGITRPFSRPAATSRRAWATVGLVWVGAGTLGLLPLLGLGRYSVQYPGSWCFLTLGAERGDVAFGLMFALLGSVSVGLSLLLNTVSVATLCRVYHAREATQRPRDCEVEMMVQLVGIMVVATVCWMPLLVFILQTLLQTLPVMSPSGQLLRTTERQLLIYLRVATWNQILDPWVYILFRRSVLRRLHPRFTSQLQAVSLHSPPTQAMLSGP
As to the kind of experiment: Compound was tested for TXA2 receptor antagonism by measuring its ability to inhibit contraction of rat aorta induced by the stable TXA2 agonist U-46,619 at 1 umol. The assay is classed as functional, tissue-based. The settings on record: read-out: pA2 (converted).

A further assay deals with T2, Thromboxane-A synthase (Homo sapiens, UniProt P24557).
T2 sequence (P24557 whole entry): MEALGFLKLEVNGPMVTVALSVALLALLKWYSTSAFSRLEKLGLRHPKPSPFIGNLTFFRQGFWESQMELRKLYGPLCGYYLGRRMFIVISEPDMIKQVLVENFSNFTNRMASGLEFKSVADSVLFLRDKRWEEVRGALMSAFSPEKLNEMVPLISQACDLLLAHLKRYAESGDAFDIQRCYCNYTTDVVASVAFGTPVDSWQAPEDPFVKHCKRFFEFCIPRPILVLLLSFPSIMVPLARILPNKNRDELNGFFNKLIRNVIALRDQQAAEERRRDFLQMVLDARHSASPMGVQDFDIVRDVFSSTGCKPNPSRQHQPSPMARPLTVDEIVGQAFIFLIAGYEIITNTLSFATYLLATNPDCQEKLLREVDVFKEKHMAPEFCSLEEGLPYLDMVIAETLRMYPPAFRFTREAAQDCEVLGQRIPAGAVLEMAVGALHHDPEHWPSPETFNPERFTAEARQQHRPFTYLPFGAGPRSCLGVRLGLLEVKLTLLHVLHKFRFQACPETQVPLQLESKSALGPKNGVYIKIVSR
Description: Inhibitory activity against human platelet microsomal TXA2 synthase.

Regarding `O=C(O)CCn1cc(Cn2ccnc2)c2cc(NS(=O)(=O)c3ccc(F)cc3)ccc21`, at Thromboxane A2 receptor, the Kb is 6.31 nM. Besides, on Thromboxane-A synthase, the half-inhibitory concentration (IC50) came out at 34 nM.

Consider `O=C(O)CCn1ccc2cc(NS(=O)(=O)c3ccc(F)cc3)ccc21`, for which, on Thromboxane A2 receptor, the Kb was 3.72 nM.

In the case of `COc1ccc(S(=O)(=O)Nc2ccc3c(c2)c(Cc2ccc(F)cc2)cn3CCC(=O)O)cc1`, the Kb on Thromboxane A2 receptor is 0.174 nM.

Consider `O=C(O)CCn1cc(Cc2ccc(F)cc2)c2cc(NS(=O)(=O)c3ccc(Cl)cc3)ccc21`, for which the Kb at Thromboxane A2 receptor is 0.234 nM.

In the case of `O=C(O)CCn1cc(Cc2ccc(F)cc2)c2cc(NS(=O)(=O)c3ccccc3)ccc21`, the Kb on Thromboxane A2 receptor is 0.676 nM.

With `O=C(O)CCCc1ccc(NS(=O)(=O)c2ccc(Cl)cc2)cc1`, at Thromboxane A2 receptor, the Kb is 100 nM.

As to `Cc1c(Cn2ccnc2)c2cc(NS(=O)(=O)c3ccc(F)cc3)ccc2n1CCC(=O)O`, the Kb on Thromboxane A2 receptor is 3800 nM. Further, the IC50 against Thromboxane-A synthase was found to be 19 nM.

As to `Cc1ccc(S(=O)(=O)Nc2ccc3c(c2)c(Cc2ccc(F)cc2)cn3CCC(=O)O)cc1`, the Kb on Thromboxane A2 receptor is 0.269 nM.

Consider `O=C(O)CCn1ccc2cc(NS(=O)(=O)c3ccc(Cl)cc3)ccc21`, for which the Kb on Thromboxane A2 receptor was 2.75 nM.

Consider `O=C(O)CCn1cc(Cc2cccnc2)c2cc(NS(=O)(=O)c3ccc(F)cc3)ccc21`, for which the Kb at Thromboxane A2 receptor is 1.41 nM. The same molecule gave an IC50 against Thromboxane-A synthase of 48 nM.

For `O=C(O)CCn1cc(Cc2ccc(F)cc2)c2cc(NS(=O)(=O)c3ccc(F)cc3)ccc21`, the Kb at Thromboxane A2 receptor was 0.479 nM.

As to `Cc1c(Cn2ccnc2)c2ccccc2n1CCC(=O)O` [DAZMEGREL], the Kb on Thromboxane A2 receptor is greater than 1000 nM.
